Measurements reported in patent US11149135B2, “Application of cyclodextrins (CDS) for remediation of perfluoroalkyl substances (PFASS)” (THE FLORIDA INTERNATIONAL UNIVERSITY BOARD OF TRUSTEES, priority 2017, dated 2021).

What was measured:
Assay type in all cases: binding
[1] = 19F NMR association constants of β-CD:legacy PFAS complexes; settings: for K1:1 association constant: 1:1 β-CD:PFAS complex; for K1:1 association constant / K2:1 association constant: aqueous media, room temperature; for K2:1 association constant: 2:1 β-CD:PFAS complex; for Legacy PFAS Kassoc (1:1): 1:1 (unmarked value taken as 1:1)
Procedure: A detailed comprehensive Nuclear Magnetic Resonance (NMR) spectral study of the complexation of PFASs to β-CD was conducted, Weiss-Errico and O'Shea, J. Hazardous Mat. 2017 329, 57-65, with highlights herein. […] Competition studies with adamantane-carboxylic acid and phenol confirmed the persistence of the β-CD:PFAS complex. The aqueous solution pH, ionic strength, and the presence of humic acid have only a modest influence on the β-CD:PFAS complexes. Table 2 gives the association constants for β-CD complexes with a sample of the PFASs studied, including perfluoroheptanoic acid (PFHpA), perfluorooctanoic acid (PFOA), perfluorononanoic acid (PFNA), perfluorooctane sulfonate (PFOS), and perfluorooctanesulfonamide (PFOSA).

[2] = 19F NMR titration, average association constants of PFECAs with α-CD; set-up: key: *: no significant association; settings: 50% D2O/50% H2O, pH 7; averaged over individual fluorines
Procedure: (§1) ^19F NMR spectroscopy was performed with a 400 MHz Bruker instrument with a quad probe (operating at 376.498 MHz for 19F). Hexafluorobenzene was used as the internal standard with a chemical shift of −164.9 ppm. For the titration experiments, the chemical shift of each peak was recorded, and the 1:1 and 2:1 association constants were calculated in GraphPad Prism and Mathworks Matlab by Ramos Cabrer et al.'s, Langmuir 1999, 15, 5489-5495 method.
(§2) The ^19F NMR spectrum of each PFECA was monitored as a function of CD concentration. The individual CD:PFECA association constants were determined via nonlinear least-squares regression analysis of the change in observed chemical shift. The association constants determined for individual fluorines were then averaged to find the average association constant for each PFECA with each CD.

[3] = 19F NMR titration, average association constants of PFECAs with β-CD; settings: for association constant with β-CD: 1:1 β-CD:PFECA; for Average association constant with β-CD (1:1): 1:1 β-CD:PFECA (unmarked values are 1:1); for Average association constant with β-CD (1:1) / Average association constant with β-CD (2:1): pH 7; for Decrease (1:1): decrease of 1:1 β-CD association constant versus legacy PFAS of the same chain length; for Emerging PFAS Kassoc (1:1): 1:1 (unmarked values taken as 1:1); for Average association constant with β-CD (2:1): 2:1 β-CD:PFECA
Procedure: as §1, §2

[4] = 19F NMR titration, average association constants of PFECAs with γ-CD; set-up: key: *: no significant association; settings: 50% D2O/50% H2O, pH 7; averaged over individual fluorines
Procedure: as §1, §2

[5] = estimated based on association constants from PFOA and PFNA

Compound | Average association constant with α-CD [2] | Average association constant with β-CD (1:1) [3] | Decrease (1:1) [3] | Emerging PFAS Kassoc (1:1) ([3]; β-CD:PFECA) | Average association constant with γ-CD [4] | further results
O=C(O)C(F)(F)C(F)(F)C(F)(F)C(F)(F)C(F)(F)C(F)(F)C(F)(F)C(F)(F)C(F)(F)F [PFDA, perfluorodecanoic acid] |  |  |  |  |  | Legacy PFAS Kassoc (1:1), estimated [1, 5]: ~10^5 (1:1) M^−1; Legacy PFAS Kassoc (2:1), estimated [1, 5]: ~10^3 (2:1) M^−1
O=C(O)C(F)(F)C(F)(F)OC(F)(F)F [PFMOBA, perfluoro(4-oxapentanoic) acid] | 3.37 +/− 1.40 × 10^1 M^−1 | 1.48 +/− 0.36 × 10^3 M^−1 | ~10 | 1.48 +/− 0.36 × 10^3 M^−1 | * | association constant with β-CD [3]: 1480 M⁻¹
NS(=O)(=O)C(F)(F)C(F)(F)C(F)(F)C(F)(F)C(F)(F)C(F)(F)C(F)(F)C(F)(F)F [PFOSA, perfluorooctanesulfonamide] |  |  |  |  |  | K1:1 association constant [1]: 1.02 ± 0.16 × 10^5 M^−1; K2:1 association constant [1]: 2.70 ± 0.57 × 10^4 M^−1
O=C(O)C(F)(F)OC(F)(F)C(F)(F)OC(F)(F)C(F)(F)C(F)(F)C(F)(F)F [PFO2DA, perfluoro(3,6-dioxadecanoic) acid] | * | 1.38 +/− 0.40 × 10^4 M^−1 | ~10 | 1.38 +/− 0.40 × 10^4 (1:1) M^−1 | 1.39 +/− 0.38 × 10^3 M^−1 | Average association constant with β-CD (2:1) [3]: 7.72 +/− 2.43 × 10^3 M^−1
O=C(O)C(F)(F)C(F)(F)C(F)(F)C(F)(F)F [PFPA, perfluoropentanoic acid] |  |  |  |  |  | Legacy PFAS Kassoc (1:1) ([1]; β-CD:legacy PFAS): 7.60 +/− 0.44 × 10^2 M^−1
O=C(O)C(F)(OC(F)(F)C(F)(F)C(F)(F)F)C(F)(F)F (stereo not drawn) [PFPrOPrA, Perfluoro(2-methyl-3-oxahexanoic) acid] | 2.36 +/− 1.10 × 10^2 M^−1 | 7.45 +/− 4.27 × 10^2 M^−1 | ~100 | 7.45 +/− 4.27 × 10^2 M^−1 | * | association constant with β-CD [3]: 745 M⁻¹
O=C(O)C(F)(F)OC(F)(F)F [PFMOPrA, Perfluoro(3-oxabutanoic) acid] | 2.60 +/− 1.14 × 10^1 M^−1 | 1.54 +/− 0.52 × 10^2 M^−1 | <10 | 1.54 +/− 0.52 × 10^2 M^−1 | * | 
O=S(=O)(O)C(F)(F)C(F)(F)C(F)(F)C(F)(F)C(F)(F)C(F)(F)C(F)(F)C(F)(F)F [PFOS, perfluorooctane sulfonate] |  |  |  |  |  | K1:1 association constant [1]: 6.96 ± 0.79 × 10^5 M^−1; K2:1 association constant [1]: 5.95 ± 1.70 × 10^4 M^−1
O=C(O)C(F)(F)C(F)(F)C(F)(F)C(F)(F)C(F)(F)C(F)(F)F [PFHpA, perfluoroheptanoic acid] |  |  |  |  |  | K1:1 association constant [1]: 4.30 ± 0.85 × 10^5 M^−1; K2:1 association constant [1]: 2.30 ± 0.27 × 10^3 M^−1; Legacy PFAS Kassoc (1:1) ([1]; β-CD:legacy PFAS): 4.30 +/− 0.85 x 10^5 (1:1) M^−1; Legacy PFAS Kassoc (2:1) ([1]; β-CD:legacy PFAS, 2:1): 2.30 +/− 0.27 × 10^3 (2:1) M^−1
O=C(O)C(F)(F)C(F)(F)C(F)(F)OC(F)(C(F)(F)F)C(F)(F)F [PFDMMOBA, perfluoro(5-oxa-6-dimethylhexanoic) acid] | * | 2.66 +/− 0.61 × 10^4 M^−1 | ~10 | 2.66 +/− 0.61 × 10^4 M^−1 | 6.85 +/− 1.82 × 10^2 M^−1 | association constant with β-CD [3]: 26600 M⁻¹; stronger complexation with β-CD than PFPrOPrA ([3]; ratio of β-CD association constants, PFDMMOBA versus PFPrOPrA): ~40 ×
O=C(O)C(F)(F)OC(F)(F)C(F)(F)OC(F)(F)C(F)(F)OC(F)(F)F [PFO3DA, perfluoro(3,6,9-trioxadecanoic) acid] | 9.28 +/− 2.80 × 10^1 M^−1 | 3.03 +/− 1.09 × 10^3 M^−1 | ~100 | 3.03 +/− 1.09 × 10^3 (1:1) M^−1 | 7.60 +/− 2.10 × 10^2 M^−1 | Average association constant with β-CD (2:1) [3]: 4.12 +/− 1.08 × 10^3 M^−1
O=C(O)C(F)(F)C(F)(F)C(F)(F)C(F)(F)C(F)(F)C(F)(F)C(F)(F)C(F)(F)F [PFNA, perfluorononanoic acid] |  |  |  |  |  | K1:1 association constant [1]: 3.37 ± 0.35 × 10^5 M^−1; K2:1 association constant [1]: 7.80 ± 0.66 × 10^3 M^−1
O=C(O)C(F)(F)OC(F)(F)C(F)(F)OC(F)(F)F [PFO2HpA, perfluoro(3,6-dioxheptanoic) acid] | 5.34 +/− 0.48 × 10^1 M^−1 | 4.74 +/− 2.04 × 10^2 M^−1 | ~1000 | 4.74 +/− 2.04 × 10^2 (1:1) M^−1 | 8.43 +/− 3.24 × 10^1 M^−1 | Average association constant with β-CD (2:1) [3]: 3.87 +/− 1.40 × 10^2 M^−1; Emerging PFAS Kassoc (2:1) ([3]; β-CD:PFECA, 2:1): 3.87 +/− 1.40 × 10^2 (2:1) M^−1
O=C(O)C(F)(F)OC(F)(F)C(F)(F)OC(F)(F)C(F)(F)OC(F)(F)C(F)(F)C(F)(F)C(F)(F)F [PFO3TDA, perfluoro-(3,6,9-trioxatridecanoic) acid] | * | 5.93 +/− 1.20 × 10^5 M^−1 |  |  | 3.48 +/− 1.50 × 10^3 M^−1 | Average association constant with β-CD (2:1) [3]: 1.36 +/− 0.28 × 10^5 M^−1
